The target in one assay is T1, hTRPA1 (Homo sapiens, UniProt O75762).
T1 construct: gene TRPA1; stably overexpressed in CHO cells
Briefly: Fluo-4 AM calcium influx, flow cytometry, CHO cells. It is filed as cell-based.

For another assay, the target named is T2, mTRPA1 (Mus musculus, UniProt Q8BLA8).
T2 construct: gene Trpa1; stably overexpressed in CHO cells
The assay is described as above. Type of assay: cell-based.

This note sets out measurements from paper PMC8703823, “The Role of TRPA1 Channels in the Central Processing of Odours Contributing to the Behavioural Responses of Mice” (Pharmaceuticals, 2021).

T2 sequence (Q8BLA8 whole entry): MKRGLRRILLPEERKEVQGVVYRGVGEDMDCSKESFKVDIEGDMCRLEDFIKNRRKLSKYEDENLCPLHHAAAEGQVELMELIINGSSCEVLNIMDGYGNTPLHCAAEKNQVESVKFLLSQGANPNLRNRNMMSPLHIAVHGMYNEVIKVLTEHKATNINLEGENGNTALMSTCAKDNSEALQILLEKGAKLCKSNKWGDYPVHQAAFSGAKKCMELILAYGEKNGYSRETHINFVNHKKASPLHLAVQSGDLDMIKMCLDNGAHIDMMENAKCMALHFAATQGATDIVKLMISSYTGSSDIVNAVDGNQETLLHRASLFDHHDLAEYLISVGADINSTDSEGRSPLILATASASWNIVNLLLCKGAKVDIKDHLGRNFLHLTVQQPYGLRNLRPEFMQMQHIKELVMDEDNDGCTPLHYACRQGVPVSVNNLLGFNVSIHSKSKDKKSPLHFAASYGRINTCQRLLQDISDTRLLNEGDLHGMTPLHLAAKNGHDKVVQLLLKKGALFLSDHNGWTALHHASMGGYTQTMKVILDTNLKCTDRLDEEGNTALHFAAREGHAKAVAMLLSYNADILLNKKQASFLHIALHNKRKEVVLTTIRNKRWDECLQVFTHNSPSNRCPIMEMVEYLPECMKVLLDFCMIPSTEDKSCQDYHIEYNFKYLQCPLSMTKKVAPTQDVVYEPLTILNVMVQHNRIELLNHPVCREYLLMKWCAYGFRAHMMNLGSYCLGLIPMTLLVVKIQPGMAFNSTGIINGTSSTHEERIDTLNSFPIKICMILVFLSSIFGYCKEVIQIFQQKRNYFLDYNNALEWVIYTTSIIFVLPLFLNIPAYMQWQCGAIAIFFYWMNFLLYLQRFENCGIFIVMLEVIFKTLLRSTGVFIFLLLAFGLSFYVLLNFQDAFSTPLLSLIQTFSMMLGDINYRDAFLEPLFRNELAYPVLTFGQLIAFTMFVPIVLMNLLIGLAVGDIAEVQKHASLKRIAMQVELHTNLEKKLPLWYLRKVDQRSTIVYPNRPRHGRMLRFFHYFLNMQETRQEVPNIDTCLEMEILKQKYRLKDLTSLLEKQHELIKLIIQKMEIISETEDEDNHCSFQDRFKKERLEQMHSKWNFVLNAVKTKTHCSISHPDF
T1 sequence (O75762 whole entry): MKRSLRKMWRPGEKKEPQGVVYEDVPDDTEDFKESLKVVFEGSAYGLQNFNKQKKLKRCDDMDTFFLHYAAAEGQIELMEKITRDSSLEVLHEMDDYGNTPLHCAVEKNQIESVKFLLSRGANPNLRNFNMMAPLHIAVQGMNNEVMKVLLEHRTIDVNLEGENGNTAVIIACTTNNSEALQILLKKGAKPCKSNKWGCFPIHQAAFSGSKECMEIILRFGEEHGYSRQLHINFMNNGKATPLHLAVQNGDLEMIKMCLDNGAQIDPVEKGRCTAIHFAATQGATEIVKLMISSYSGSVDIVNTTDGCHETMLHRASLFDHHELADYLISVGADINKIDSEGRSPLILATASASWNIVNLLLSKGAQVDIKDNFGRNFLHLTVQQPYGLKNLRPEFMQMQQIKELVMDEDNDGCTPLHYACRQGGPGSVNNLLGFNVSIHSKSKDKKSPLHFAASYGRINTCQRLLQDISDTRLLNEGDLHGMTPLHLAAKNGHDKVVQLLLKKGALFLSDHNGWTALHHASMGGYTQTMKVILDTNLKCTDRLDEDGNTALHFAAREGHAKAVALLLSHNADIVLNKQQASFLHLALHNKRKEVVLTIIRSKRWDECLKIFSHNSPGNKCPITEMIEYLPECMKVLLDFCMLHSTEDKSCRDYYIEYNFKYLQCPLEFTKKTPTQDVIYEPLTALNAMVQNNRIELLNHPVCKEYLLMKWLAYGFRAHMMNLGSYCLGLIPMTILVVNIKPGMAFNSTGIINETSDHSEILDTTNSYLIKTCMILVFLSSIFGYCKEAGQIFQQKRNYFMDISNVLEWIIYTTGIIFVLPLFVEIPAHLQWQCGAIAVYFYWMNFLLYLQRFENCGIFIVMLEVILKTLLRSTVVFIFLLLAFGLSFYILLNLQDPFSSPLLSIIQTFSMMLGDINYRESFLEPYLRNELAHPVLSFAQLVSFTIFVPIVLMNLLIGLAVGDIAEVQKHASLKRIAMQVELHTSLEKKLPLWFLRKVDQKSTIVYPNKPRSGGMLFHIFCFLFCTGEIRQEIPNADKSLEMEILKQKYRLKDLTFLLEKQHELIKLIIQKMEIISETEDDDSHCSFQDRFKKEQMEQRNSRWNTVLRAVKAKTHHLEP

`CC1=NCCS1` [2-MT, 2-methyl-2-thiazoline]: the results for the EC50 at hTRPA1 and at mTRPA1 were 5.01 mM and 4.42 mM, respectively.
